Ten molecules from ChEMBL document CHEMBL1201862, “PubChem BioAssay data set” (2004) can be followed below.

Test systems include 786-0; CAKI-1; COLO 205; HL-60; LOX IMVI; M14; MDA-MB-231; MDA-MB-435; MDA-N; MOLT-4; NCI-H226; NCI/ADR-RES; OVCAR-4; RPMI-8226; SK-MEL-5; SN12C; T47D; U-251; UACC-62; UO-31.
Holding throughout (test): NCI tumour cell line growth inhibition, 48 h

The structures appear in SMILES notation.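 Briefly, cells in 96-well plates were exposed to five compound concentrations for 48 h, and endpoints were estimated by linear interpolation. Abbreviation: GI50, concentration required for 50% inhibition of growth.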 The source made the active and inactive calls. Cut-off read from the data, not from the text of the source: active = GI50 up to about 1.1 µM and inactive = higher.

Regarding `CSC1(C(=O)O)C2CCC3C2CCC31` (stereo not given), the GI50 with 786-0 was > 100 µM (inactive); in the experiment with CAKI-1, > 100 µM (inactive); with COLO 205 it was > 100 µM (inactive); with HL-60, 99.5 µM (inactive); in the experiment with LOX IMVI, > 100 µM (inactive); with M14, > 100 µM (inactive). Also, the GI50 with MDA-MB-231, with MDA-MB-435, with MDA-N, with MOLT-4, in the experiment with NCI-H226 and with NCI/ADR-RES was > 100 µM (inactive) each time. Moreover, the GI50 in the experiment on OVCAR-4, in the experiment on RPMI-8226, with SK-MEL-5, with SN12C, in the experiment with T47D and in the experiment on U-251 was > 100 µM (inactive) throughout. Further, the GI50 with UACC-62 and in the experiment with UO-31 was > 100 µM (inactive) in each case.

For the molecule `C=CC(=O)N1C/C(=C\c2ccc(Cl)cc2)C(=O)/C(=C/c2ccc(Cl)cc2)C1`, the GI50 was 0.21 µM (active) with 786-0; 0.343 µM (active) in the experiment with CAKI-1; 0.39 µM (active) in the experiment on COLO 205; 0.484 µM (active) with HL-60; 0.124 µM (active) with LOX IMVI; 0.255 µM (active) in the experiment with M14. Further, the GI50 in the experiment on MDA-MB-231 is 0.255 µM (active); in the experiment on MDA-MB-435 it was 0.262 µM (active); with MDA-N, 0.214 µM (active); in the experiment on MOLT-4, 0.3 µM (active); with NCI-H226 it was 0.237 µM (active); in the experiment on NCI/ADR-RES, 0.436 µM (active). In addition, the GI50 in the experiment on OVCAR-4 is 0.286 µM (active); in the experiment with RPMI-8226 it was 0.0263 µM (active); in the experiment with SK-MEL-5, 1.36 µM (inactive); in the experiment with SN12C, 0.313 µM (active); in the experiment on T47D, 2 µM (inactive); in the experiment on U-251, 0.173 µM (active). In addition, the GI50 in the experiment on UACC-62 was 0.294 µM (active); in the experiment on UO-31, 0.335 µM (active).

In the case of `Nc1nc(O)c2[nH]nnc2n1` [8-AZAGUANINE], the GI50 in the experiment with 786-0 was 0.292 µM (active); in the experiment on CAKI-1, 0.304 µM (active); with COLO 205 it was 13.3 µM (inactive); with HL-60 it was 0.326 µM (active); in the experiment with LOX IMVI, 0.223 µM (active); with M14, 0.292 µM (active). For the same molecule, the GI50 in the experiment with MDA-MB-231 was 5.82 µM (inactive); in the experiment with MDA-MB-435 it was 0.265 µM (active); with MDA-N, 0.308 µM (active); with MOLT-4, 0.272 µM (active); with NCI-H226 it was 0.789 µM (active); with NCI/ADR-RES it was 1.93 µM (inactive). Moreover, the GI50 is 12.9 µM (inactive) in the experiment with OVCAR-4; 0.234 µM (active) in the experiment with RPMI-8226; 0.748 µM (active) in the experiment on SK-MEL-5; 0.334 µM (active) in the experiment on SN12C; 3.44 µM (inactive) in the experiment with T47D; 1.74 µM (inactive) in the experiment on U-251. The GI50 is 0.372 µM (active) with UACC-62 and 0.366 µM (active) in the experiment with UO-31.

Turning to `Cc1cn(C2CCC(CO)(CF)O2)c(=O)[nH]c1=O` (stereo not given), the GI50 in the experiment with 786-0, with CAKI-1, in the experiment with COLO 205, in the experiment with HL-60, in the experiment on LOX IMVI and in the experiment on M14 was > 100 µM (inactive) in each case. In addition, the GI50 in the experiment with MDA-MB-231, in the experiment on MDA-MB-435, in the experiment with MDA-N, with MOLT-4, in the experiment with NCI-H226 and in the experiment on NCI/ADR-RES was > 100 µM (inactive) in each case. The GI50 with OVCAR-4, with RPMI-8226, in the experiment with SK-MEL-5, in the experiment with SN12C, in the experiment on T47D and in the experiment with U-251 was > 100 µM (inactive) in each case. For the same molecule, the GI50 with UACC-62 and in the experiment on UO-31 was > 100 µM (inactive) each time.

Consider `COc1cc2ccccc2oc1=O`, for which the GI50 with 786-0 was > 100 µM (inactive); in the experiment with CAKI-1, 99.3 µM (inactive); with COLO 205 it was > 100 µM (inactive); in the experiment with HL-60 it was 50.8 µM (inactive); in the experiment on LOX IMVI, > 100 µM (inactive); with M14, 81.7 µM (inactive). Besides, the GI50 in the experiment on MDA-MB-231 is > 100 µM (inactive); with MDA-MB-435 it was > 100 µM (inactive); with MDA-N it was > 100 µM (inactive); in the experiment on MOLT-4, 67.3 µM (inactive); in the experiment with NCI-H226, > 100 µM (inactive); in the experiment on NCI/ADR-RES, 97.5 µM (inactive). Further, the GI50 with OVCAR-4 is > 100 µM (inactive); in the experiment with RPMI-8226, > 100 µM (inactive); with SK-MEL-5, > 100 µM (inactive); in the experiment on SN12C, > 100 µM (inactive); with T47D, 1.85 µM (inactive); with U-251, > 100 µM (inactive). The GI50 in the experiment with UACC-62 was 24 µM (inactive); in the experiment on UO-31, 39 µM (inactive).

`O=C(O)C(SC1=NC(=O)C2(NN1)c1ccccc1-c1ccccc12)SC1=NC(=O)C2(NN1)c1ccccc1-c1ccccc12`: the GI50 is > 10 µM (inactive) in the experiment with 786-0; > 10 µM (inactive) in the experiment on CAKI-1; > 10 µM (inactive) in the experiment on COLO 205; 5.14 µM (inactive) in the experiment with HL-60; 9.02 µM (inactive) in the experiment on LOX IMVI; > 10 µM (inactive) in the experiment with M14. Also, the GI50 is > 10 µM (inactive) in the experiment with MDA-MB-231; > 10 µM (inactive) in the experiment on MDA-MB-435; > 10 µM (inactive) in the experiment on MDA-N; 4.09 µM (inactive) with MOLT-4; > 10 µM (inactive) with NCI-H226; > 10 µM (inactive) in the experiment on NCI/ADR-RES. For the same molecule, the GI50 in the experiment on OVCAR-4 is > 10 µM (inactive); with RPMI-8226, 7.33 µM (inactive); in the experiment on SK-MEL-5 it was > 10 µM (inactive); in the experiment on SN12C, > 10 µM (inactive); in the experiment on T47D it was 6.89 µM (inactive); in the experiment on U-251, > 10 µM (inactive). Besides, the GI50 in the experiment with UACC-62 and with UO-31 was > 10 µM (inactive) in each case.

As to `c1ccc(CSCCc2ccncc2)cc1`, the GI50 in the experiment with 786-0 was > 100 µM (inactive); in the experiment with CAKI-1 it was < 0.01 µM (active); in the experiment with COLO 205 it was > 100 µM (inactive); with HL-60 it was 50.8 µM (inactive); in the experiment with LOX IMVI, > 100 µM (inactive); in the experiment on M14 it was > 100 µM (inactive). Also, the GI50 with MDA-MB-231 was 15.8 µM (inactive); with MDA-MB-435, > 100 µM (inactive); with MDA-N, > 100 µM (inactive); with MOLT-4 it was > 100 µM (inactive); with NCI-H226 it was > 100 µM (inactive); in the experiment on NCI/ADR-RES, > 100 µM (inactive). Further, the GI50 with OVCAR-4 is 44 µM (inactive); with RPMI-8226, 49.9 µM (inactive); in the experiment on SK-MEL-5, > 100 µM (inactive); in the experiment with SN12C it was > 100 µM (inactive); in the experiment on T47D, 90.6 µM (inactive); with U-251, > 100 µM (inactive). Further, the GI50 in the experiment on UACC-62 and in the experiment on UO-31 was > 100 µM (inactive) in each case.

`COc1cccc(/C=C\c2ccc(O)cc2)c1`: the GI50 with 786-0 is 10.4 µM (inactive); in the experiment on CAKI-1, 17.7 µM (inactive); in the experiment with COLO 205, 48.1 µM (inactive); in the experiment on HL-60, 0.151 µM (active); in the experiment with LOX IMVI, 14.9 µM (inactive); with M14, 17.5 µM (inactive). Also, the GI50 with MDA-MB-231 was 30.1 µM (inactive); in the experiment on MDA-MB-435 it was 19.5 µM (inactive); with MDA-N, 21.1 µM (inactive); in the experiment with MOLT-4, 3.6 µM (inactive); with NCI-H226, 28.2 µM (inactive); with NCI/ADR-RES, 6.12 µM (inactive). Moreover, the GI50 was 23.7 µM (inactive) in the experiment on OVCAR-4; 22.4 µM (inactive) in the experiment with RPMI-8226; 17.6 µM (inactive) with SK-MEL-5; 22.9 µM (inactive) with SN12C; 18.7 µM (inactive) in the experiment on T47D; 11.2 µM (inactive) with U-251. The results for the GI50 with UACC-62 and in the experiment with UO-31 were 10.2 µM (inactive) and 5.4 µM (inactive), respectively.

Regarding `COc1ccc(/C=C/C(=O)c2cc(C(C)(C)C)c(O)c(C(C)(C)C)c2)cc1OC`, the GI50 was 8.67 µM (inactive) with 786-0; 10.7 µM (inactive) in the experiment on CAKI-1; 5.74 µM (inactive) in the experiment on COLO 205; 2.84 µM (inactive) in the experiment with HL-60; 8.75 µM (inactive) with LOX IMVI; 25.3 µM (inactive) with M14. The GI50 in the experiment on MDA-MB-231 is 6.4 µM (inactive); in the experiment with MDA-MB-435, 3.2 µM (inactive); in the experiment with MDA-N, 2.94 µM (inactive); in the experiment on MOLT-4, 2.77 µM (inactive); with NCI-H226, 10.7 µM (inactive); in the experiment with NCI/ADR-RES it was 4.85 µM (inactive). In addition, the GI50 in the experiment on OVCAR-4 is 5.9 µM (inactive); in the experiment on RPMI-8226, 2.56 µM (inactive); in the experiment on SK-MEL-5 it was 6.75 µM (inactive); in the experiment on SN12C, 8.15 µM (inactive); in the experiment with T47D, 3.29 µM (inactive); in the experiment with U-251, 5.79 µM (inactive). The GI50 in the experiment with UACC-62 is 10 µM (inactive); in the experiment with UO-31, 5.16 µM (inactive).

For the molecule `C=CCn1c(=O)c2ccccc2[n+]2c(C)c(C(=O)OCC)sc12`, the GI50 in the experiment on 786-0, with CAKI-1, in the experiment with COLO 205, in the experiment on HL-60, with LOX IMVI and with M14 was > 100 µM (inactive) throughout. Besides, the GI50 in the experiment with MDA-MB-231, in the experiment with MDA-MB-435, with MDA-N, in the experiment with MOLT-4, in the experiment on NCI-H226 and in the experiment on NCI/ADR-RES was > 100 µM (inactive) each time. Moreover, the GI50 with OVCAR-4 was > 100 µM (inactive); with RPMI-8226 it was > 100 µM (inactive); with SK-MEL-5 it was > 100 µM (inactive); in the experiment on SN12C, > 100 µM (inactive); in the experiment on T47D it was > 100 µM (inactive); in the experiment on U-251, 90.2 µM (inactive). For the same molecule, the GI50 in the experiment on UACC-62 and with UO-31 was > 100 µM (inactive) in each case.
